Assay results published in US20250120975A1, “INTEGRIN INHIBITORS FOR TREATMENT OF PRIMARY SCLEROSING CHOLANGITIS” (Pliant Therapeutics, Inc., priority 2023, published 2025).

Tests used:
[1] = system: BALB/c.Mdr2−/− mouse model of biliary fibrosis; assay: Connective tissue (picrosirius red) histology; type: in vivo; details: 300 and 1000 mg/kg, 6 weeks
From the text: (§1) The tissue source is BALBc.Mdr2-/−male mice that were 6 weeks old. The Mdr2(abcb4)−/− mouse model of sclerosing cholangitis has been previously described and is a model of spontaneously progressive hepatic fibrosis in mice with deletion of the biliary phospholipid flippase on fibrosis-susceptible background (Mdr2(abcb4)^−/−. BALB/c mouse). See N. Ikenaga, et al. (2015) Am J Pathol. 185 (2): 325-334, the entire contents of which are hereby incorporated by reference in their entirety.
(§2) (S)-4-((2-methoxyethyl)(4-(5,6,7,8-tetrahydro-1,8-naphthyridin-2-yl)butyl)amino)-2-(quinazolin-4-ylamino)butanoic acid (or PBS) was dosed once daily orally at 100 mg/kg, 300 mg/kg or 1000 mg/kg (see Table B-2) starting at 6 weeks after birth of the subject and continuing for 6 weeks. All animals were euthanized and necropsied at the end of week 12.
Connective tissue stains were carried out to morphometrically assess fibrosis, through analysis of 10 high power fields per animal.

[2] = system: subjects with PSC and suspected liver fibrosis; assay: Phase 2a INTEGRIS-PSC: gadoxetate contrast MRI of the liver; type: in vivo, human; details: for MRI relative enhancement (gadoxetate) / time to arrival to the common bile duct (gadoxetate): Example B-5
Description: Imaging of the whole liver was performed by MRI prior to Baseline and at Week 12 (Parts 1 and 2) and will be performed at Baseline, at Week 12, and at Week 24 (Part 3 only), and will be read centrally utilizing dynamic liver imaging in combination with the contrast agent Gadoxetate disodium and a 4-hour fast (no food or drink, except water). Any clinically significant incidental findings are evaluated as potential AEs.
(§3) Absolute and relative changes from Baseline in liver fibrosis biomarkers (including PRO-C3 and ELF) and in ALP are presented in numerical and graphical forms by treatment and dose utilizing data from the timepoints specified in the Schedule of Events. Changes from Baseline to Week 12(Parts 1 and 2) and Week 24 (Part 3) in magnetic resonance (MR)-based liver imaging are also evaluated, as well as changes in PROs.

[3] = system: pSMAD3; assay: pSMAD3/SMAD3 MSD assay in mouse liver tissue; type: in vivo; details: all doses (100, 300, 1000 mg/kg), 6 weeks
From the text: as §1, §2
Mouse liver tissues were lysed with RIPA buffer with protease inhibitor cocktail. Total protein concentration was determined by Micro BCA kit. MSD GOLD™ 96 Sm Spot SA Plate was washed three times with 150 μL of PBST and 1 μg/mL of biotinylated anti-SMAD2/3 was added to the plate, 25 μL per well (60 Min incubation under agitation). The plate was washed as before and 12.5 μL of unknown samples plus 12.5 μL of PBST were added in duplicates. […] After wash, 150 μL of 1× read buffer was added and the plate was read using an MSD Sector Imager instrument.

[4] = system: subjects with PSC and suspected liver fibrosis; assay: Phase 2a INTEGRIS-PSC: liver biochemistry (ALP, ALT, AST, bilirubin); type: in vivo, human
Description: Fasting blood and urine specimens for safety laboratory assessments were or will be obtained at the time points specified in the Schedule of Events (see Table B-4, Table B-5, and Table B-6). Specimens are obtained after at least an 8-hour fast. Subjects are in a seated or supine position during blood collection. Creatinine clearance is calculated using the Cockcroft-Gault equation.
as §3

[5] = system: other integrin receptors; assay: Integrin-ligand binding assays (selectivity); details: including leukocyte-expressed integrins
[6] = system: BALB/c.Mdr2−/− mouse model of biliary fibrosis; assay: Direct (invasive) portal venous pressure measurement; type: in vivo; details: 100, 300, 1000 mg/kg PO/QD, 6 weeks
Description: Antifibrotic activity of (S)-4-((2-methoxyethyl)(4-(5,6,7,8-tetrahydro-1,8-naphthyridin-2-yl)butyl)amino)-2-(quinazolin-4-ylamino)butanoic acid was tested in the BALBc.Mdr2−/− murine model of liver biliary fibrosis. […] BALBc.Mdr2−/− mice develop periductular fibrotic lesions at 4 weeks with rapid and progressive fibrotic progression. Bridging fibrosis and early cirrhosis is observed at 12 weeks along with severe portal hypertension and enhanced collagen deposition.
The tissue source is BALBc.Mdr2-/−male mice that were 6 weeks old. The Mdr2(abcb4)−/− mouse model of sclerosing cholangitis has been previously described and is a model of spontaneously progressive hepatic fibrosis in mice with deletion of the biliary phospholipid flippase on fibrosis-susceptible background (Mdr2(abcb4)^−/−. BALB/c mouse). See N. Ikenaga, et al. (2015) Am J Pathol. 185 (2): 325-334, the entire contents of which are hereby incorporated by reference in their entirety. […]
After laparotomy, the portal vein of the mouse subject was cannulated through an ileocolic vein, and portal pressure was measured directly by inserting a 1.2-Fr high-fidelity pressure catheter. Pressure signals were recorded at 2 kHz for 5 Min, and analyzed using PowerLab software. […]

[7] = system: subjects with PSC and concomitant IBD; assay: Phase 2a INTEGRIS-PSC: IBD symptoms (partial Mayo Score); type: in vivo, human
From the text: Questionnaires to assess PROs will be administered at Baseline, Weeks 4 and 12(Parts 1, 2, and 3) and at Week 24 (Part 3 only), and will include the Chronic Liver Disease Questionnaire (CLDQ), the Itch Numeric Rating Scale (NRS), and the Partial Mayo Score (PMS), when available for use. See A. N. Naegeli, et al. (2015) International Journal of Dermatology 54 (6): 715-722 and Z. M. Younossi, et al. (1999) Gut 45:295-300, the entire contents of which are hereby incorporated by reference in their entirety.

[8] = system: BALB/c.Mdr2−/− mouse model of biliary fibrosis; assay: Relative and total liver collagen (hydroxyproline); type: in vivo; details: 6 weeks
From the text: as §1, §2
Liver collagen was determined biochemically as hydroxyproline (OHP). See N. Ikenaga, et al. (2015) Am J Pathol. 185 (2): 325-334, the entire contents of which are hereby incorporated by reference in their entirety. Two fresh liver pieces from the left and right liver lobe (120-160 mg each) were hydrolyzed in 2 mL 6N HCl at a temperature of 110° C. for 16 h. Moreover, 20 μL of hydrolysate was evaporated under N2 and OHP was quantified using the chloramine-T/dimethylamino-benzaldehyde method. OHP levels were used to calculate relative (per 100 mg of wet liver) and total (obtained by multiplying liver weights with relative hepatic OHP) hepatic collagen content.

[9] = all doses, Week 12, MRI sub-study, Example B-4
[10] = 1000 mg/kg, relative to the vehicle control

With `COCCN(CCCCc1ccc2c(n1)NCCC2)CC[C@H](Nc1ncnc2ccccc12)C(=O)O` [Bexotegrast, (S)-4-((2-methoxyethyl)(4-(5,6,7,8-tetrahydro-1,8-naphthyridin-2-yl)butyl)amino)-2-(quinazolin-4-ylamino)butanoic acid] the “fibrosis by picrosirius red histological staining” value [1] was “significant reductions”, the “MRI relative enhancement (gadoxetate)” value ([2]; 320 mg, Week 12, MRI sub-study) was “increased relative enhancement” and the “time to arrival to the common bile duct (gadoxetate)” value ([2]; 320 mg, Week 12, MRI sub-study) was “decreased time to arrival”. For the same compound, the “MRI imaging: hepatocyte function and bile flow relative to placebo” value ([2]; 320 mg, Week 12, Example B-4) was “evidence of improved hepatocyte function and bile flow”, the “MRI relative enhancement (gadoxetate)” value ([2]; 320 mg, Week 24, MRI sub-study) was “further increase in relative enhancement” and the “time to arrival to the common bile duct (gadoxetate)” value ([2]; 320 mg, Week 24, MRI sub-study) was “faster time to arrival”. The “change in Gadoxetate time of arrival in bile duct” value ([2]; all doses compared to placebo, Week 12, Example B-3) was “shorter”, the “MRI relative enhancement in whole liver (gadoxetate)” value ([2]; all doses, Baseline to Week 12, compared to a reduction in placebo, Example B-3) was “improvement in relative enhancement” and the “Gadoxetate relative enhancement (RE) compared to the placebo” value [2, 9] was “increase”. For the same compound, the “Gadoxetate time of arrival to the common bile duct compared to the placebo” value [2, 9] was “reduced”, the “pSMAD3 levels in liver” value [3] was “decreased” and the “ALP, all participants” value ([4]; 320 mg, over 24 weeks, compared to increased levels on placebo, Example B-5) was “statistically significant reduction”. For the same compound, the “ALP, patients with elevated baseline ALP values” ([4]; 320 mg, over 24 weeks, Example B-5) was “greater reductions”, the “ALP relative to placebo” value ([4]; 40, 80, 160 mg, Week 12, Example B-3) was “dose-dependent trend for reduction in ALP” and the “liver chemistry levels (ALT, AST, total and direct bilirubin)” value ([4]; all doses versus increases in placebo, Week 12, Example B-3) was “stabilization of liver chemistry levels”. The “ALP relative to the placebo” value ([4]; subgroup with elevated ALP (>ULN) at Baseline, Week 12, Example B-4) was “stabilized”, the “selectivity for αVβ6 and αVβ1 over other integrin receptors” value [5] was “highly selective” and the portal venous pressure [6] was “did not induce any changes”. The “IBD symptoms in patients with IBD” value ([7]; 40, 80, 160 mg, 12 weeks, Example B-3) was “no clinically-relevant changes”, the “IBD symptoms as measured by partial Mayo Score” value ([7]; patients with concomitant IBD, Example B-4) was “no change” and the “reduction in total hepatic collagen” value ([8]; 1000 mg/kg PO/QD) was “approximately 75%”. For the same compound, the “relative hepatic collagen content (normalized to liver weight)” value [8, 10] was “decreased” and the “total hepatic collagen content” value [8, 10] was “decreased”.
